# Target: human orexin-2 receptor (Homo sapiens (Human), UniProt O43614)
# Test: Human orexin 2 receptor radioligand binding ([3H]-EMPA competition)
# Settings: HEK293 cells stably expressing human orexin-2 receptor; [3H]-EMPA 5 nM final; apparent Ki=IC50/(1+C/Kd), Kd=2 nM; read-out: OR 2 Ki
# Chain of human orexin-2 receptor (O43614 whole entry): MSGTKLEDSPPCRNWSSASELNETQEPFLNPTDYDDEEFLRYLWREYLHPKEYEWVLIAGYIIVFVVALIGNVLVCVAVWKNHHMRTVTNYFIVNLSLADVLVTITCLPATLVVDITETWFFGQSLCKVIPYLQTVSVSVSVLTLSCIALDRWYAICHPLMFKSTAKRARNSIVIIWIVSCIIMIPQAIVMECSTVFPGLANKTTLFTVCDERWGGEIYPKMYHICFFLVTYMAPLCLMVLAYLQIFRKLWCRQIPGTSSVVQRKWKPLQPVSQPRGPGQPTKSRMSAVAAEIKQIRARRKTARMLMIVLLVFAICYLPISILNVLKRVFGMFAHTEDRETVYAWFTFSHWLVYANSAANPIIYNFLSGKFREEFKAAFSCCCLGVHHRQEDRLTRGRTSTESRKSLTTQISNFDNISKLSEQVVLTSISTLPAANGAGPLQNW
row,Ki,Structure (SMILES)
1,37 nM,"COc1cc(N2CC3CN(C(=O)c4c(F)cccc4-n4nccn4)CC3C2)nc(N(C)C)n1 (stereo not drawn) [Example 1, 4-[5-{[2-Fluoro-6-(2H-1,2,3-triazol-2-yl)phenyl]carbonyl}hexahydropyrrolo[3,4-c]pyrrol-2(1H)-yl]-6-methoxy-N,N-dimethylpyrimidin-2-amine]"
2,33 nM,"CN(C)c1cc(N2CC3CN(C(=O)c4ccccc4-n4nccn4)CC3C2)nc(C(F)(F)F)n1 (stereo not drawn) [Example 2, N,N-Dimethyl-6-[5-{[2-(2H-1,2,3-triazol-2-yl)phenyl]carbonyl}hexahydropyrrolo[3,4-c]pyrrol-2(1H)-yl]-2-(trifluoromethyl)pyrimidin-4-amine]"
3,42 nM,"CN(C)c1cc(N2CC3CN(C(=O)c4c(F)cccc4-n4nccn4)CC3C2)nc(C(F)(F)F)n1 (stereo not drawn) [Example 3, 6-[5-{[2-Fluoro-6-(2H-1,2,3-triazol-2-yl)phenyl]carbonyl}hexahydropyrrolo[3,4-c]pyrrol-2(1H)-yl]-N,N-dimethyl-2-(trifluoromethyl)pyrimidin-4-amine]"
4,65 nM,"COc1cc(N2CC3CN(C(=O)c4cc(F)ccc4-n4nccn4)CC3C2)nc(N(C)C)n1 (stereo not drawn) [Example 4, 4-[5-{[5-Fluoro-2-(2H-1,2,3-triazol-2-yl)phenyl]carbonyl}hexahydropyrrolo[3,4-c]pyrrol-2(1H)-yl]-6-methoxy-N,N-dimethylpyrimidin-2-amine]"
5,14 nM,"COc1cc(N2CC3CN(C(=O)c4ccccc4-n4nccn4)CC3C2)nc(N(C)C)n1 (stereo not drawn) [Example 5, 4-Methoxy-N,N-dimethyl-6-[5-{[2-(2H-1,2,3-triazol-2-yl)phenyl]carbonyl}hexahydropyrrolo-[3,4-c]pyrrol-2(1H)-yl]pyrimidin-2-amine]"
6,67 nM,"CN(C)c1cc(N2CC3CN(C(=O)c4ccc(F)cc4-n4nccn4)CC3C2)nc(C(F)(F)F)n1 (stereo not drawn) [Example 6, 6-[5-{[4-Fluoro-2-(2H-1,2,3-triazol-2-yl)phenyl]carbonyl}hexahydropyrrolo[3,4-c]pyrrol-2(1H)-yl]-N,N-dimethyl-2-(trifluoromethyl)pyrimidin-4-amine]"
7,42 nM,"COc1cc(N2CC3CN(C(=O)c4ccc(F)cc4-n4nccn4)CC3C2)nc(N(C)C)n1 (stereo not drawn) [Example 7, 4-[5-{[4-Fluoro-2-(2H-1,2,3-triazol-2-yl)phenyl]carbonyl}hexahydropyrrolo[3,4-c]pyrrol-2(1H)-yl]-6-methoxy-N,N-dimethylpyrimidin-2-amine]"
8,542 nM,"Cc1cc(C)nc(N2CC3CN(C(=O)c4sccc4-n4cccc4)CC3C2)n1 (stereo not drawn) [Example 8, 2-(4,6-Dimethylpyrimidin-2-yl)-5-{[3-(1H-pyrrol-1-yl)thiophen-2-yl]carbonyl}octahydro-pyrrolo[3,4-c]pyrrole]"
9,101 nM,"CN(C)c1cc(N2CC3CN(C(=O)c4cc(F)ccc4-n4nccn4)CC3C2)nc(C(F)(F)F)n1 (stereo not drawn) [Example 9, 6-[5-{[5-Fluoro-2-(2H-1,2,3-triazol-2-yl)phenyl]carbonyl}hexahydropyrrolo[3,4-c]pyrrol-2(1H)-yl]-N,N-dimethyl-2-(trifluoromethyl)pyrimidin-4-amine]"
10,170 nM,"Cc1cc(C)nc(N2CC3CN(C(=O)c4ccnn4-c4ccccc4)CC3C2)n1 (stereo not drawn) [Example 10, 2-(4,6-Dimethylpyrimidin-2-yl)-5-[(1-phenyl-1H-pyrazol-5-yl)carbonyl]octahydropyrrolo[3,4-c]pyrrole]"
11,46 nM,"Cc1cc(C)nc(N2CC3CN(C(=O)c4sccc4-c4ccccc4)CC3C2)n1 (stereo not drawn) [Example 12, 2-(4,6-Dimethylpyrimidin-2-yl)-5-[(3-phenylthiophen-2-yl)carbonyl]octahydropyrrolo[3,4-c]pyrrole]"
12,89 nM,"Cc1cc(C)nc(N2CC3CN(C(=O)c4occc4-c4ccccc4)CC3C2)n1 (stereo not drawn) [Example 13, 2-(4,6-Dimethylpyrimidin-2-yl)-5-[(3-phenylfuran-2-yl)carbonyl]octahydropyrrolo[3,4-c]pyrrole]"
13,28 nM,"Cc1cc(C)nc(N2CC3CN(C(=O)c4ccccc4-c4nnc[nH]4)CC3C2)n1 (stereo not drawn) [Example 14, 2-(4,6-Dimethylpyrimidin-2-yl)-5-{[2-(1H-1,2,4-triazol-5-yl)phenyl]carbonyl}octahydro-pyrrolo[3,4-c]pyrrole]"
14,300 nM,"COc1ccc(C(=O)N2CC3CN(c4nc5ccc(F)cc5s4)CC3C2)c(OC)c1 (stereo not drawn) [Example 16, 2-{5-[(2,4-Dimethoxyphenyl)carbonyl]hexahydropyrrolo[3,4-c]pyrrol-2(1H)-yl}-6-fluoro-1,3-benzothiazole]"
15,730 nM,"COc1ccc(C(=O)N2CC3CN(c4nc5ccccc5s4)CC3C2)c(OC)c1 (stereo not drawn) [Example 17, 2-{5-[(2,4-Dimethoxyphenyl)carbonyl]hexahydropyrrolo[3,4-c]pyrrol-2(1H)-yl}-1,3-benzothiazole]"
16,519 nM,"O=C(c1ccccc1-n1cccn1)N1CC2CN(c3cnc4ccccc4n3)CC2C1 (stereo not drawn) [Example 18, 2-[5-{[2-(1H-Pyrazol-1-yl)phenyl]carbonyl}hexahydropyrrolo[3,4-c]pyrrol-2(1H)-yl]quinoxaline]"
17,24 nM,"O=C(c1ccccc1-c1cccs1)N1CC2CN(c3cnc4ccccc4n3)CC2C1 (stereo not drawn) [Example 19, 2-{5-[(2-Thiophen-2-ylphenyl)carbonyl]hexahydropyrrolo[3,4-c]pyrrol-2(1H)-yl}quinoxaline]"
18,352 nM,"O=C(c1cccc2c1OCCO2)N1CC2CN(c3nccc(-c4ccccc4)n3)CC2C1 (stereo not drawn) [Example 21, 2-(2,3-Dihydro-1,4-benzodioxin-5-ylcarbonyl)-5-(4-phenylpyrimidin-2-yl)octahydropyrrolo[3,4-c]pyrrole]"

row,Ki,Structure (SMILES)
1,70 nM,"O=C(c1ccccc1-c1cccs1)N1CC2CN(c3nccc(-c4ccccc4)n3)CC2C1 (stereo not drawn) [Example 22, 2-(4-Phenylpyrimidin-2-yl)-5-[(2-thiophen-2-ylphenyl)carbonyl]octahydro-pyrrolo[3,4-c]pyrrole]"
2,364 nM,"O=C(c1ccccc1-n1cccn1)N1CC2CN(c3nccc(-c4ccccc4)n3)CC2C1 (stereo not drawn) [Example 23, 2-(4-Phenylpyrimidin-2-yl)-5-{[2-(1H-pyrazol-1-yl)phenyl]carbonyl}octahydro-pyrrolo[3,4-c]pyrrole]"
3,415 nM,"O=C(c1ccccc1-n1cccc1)N1CC2CN(c3nccc(-c4ccccc4)n3)CC2C1 (stereo not drawn) [Example 24, 2-(4-Phenylpyrimidin-2-yl)-5-{[2-(1H-pyrrol-1-yl)phenyl]carbonyl}octahydro-pyrrolo[3,4-c]pyrrole]"
4,110 nM,"Cc1ccc2ccccc2c1C(=O)N1CC2CN(c3nccc(-c4ccccc4)n3)CC2C1 (stereo not drawn) [Example 25, 2-[(2-Methylnaphthalen-1-yl)carbonyl]-5-(4-phenylpyrimidin-2-yl)octahydropyrrolo[3,4-c]pyrrole]"
5,9000 nM,"N#Cc1ccccc1C(=O)N1CC2CN(c3cnc4ccccc4n3)CC2C1 (stereo not drawn) [Example 26, 2-(5-Quinoxalin-2-yl-hexahydro-pyrrolo[3,4-c]pyrrole-2-carbonyl)-benzonitrile]"
6,740 nM,"O=C(c1ccccc1-n1cccc1)N1CC2CN(c3cnc4ccccc4n3)CC2C1 (stereo not drawn) [Example 27, 2-[5-{[2-(1H-Pyrrol-1-yl)phenyl]carbonyl}hexahydropyrrolo[3,4-c]pyrrol-2(1H)-yl]quinoxaline]"
7,575 nM,"O=C(c1ccccc1-c1ccc(F)cc1)N1CC2CN(c3cnc4ccccc4n3)CC2C1 (stereo not drawn) [Example 28, 2-{5-[(4′-Fluorobiphenyl-2-yl)carbonyl]hexahydropyrrolo[3,4-c]pyrrol-2(1H)-yl}quinoxaline]"
8,135 nM,"O=C(c1ccccc1-c1cccc(F)c1)N1CC2CN(c3cnc4ccccc4n3)CC2C1 (stereo not drawn) [Example 29, 2-{5-[(3′-Fluorobiphenyl-2-yl)carbonyl]hexahydropyrrolo[3,4-c]pyrrol-2(1H)-yl}quinoxaline]"
9,790 nM,"Cc1ccccc1C(=O)N1CC2CN(c3cnc4ccccc4n3)CC2C1 (stereo not drawn) [Example 30, 2-{5-[(2-Methylphenyl)carbonyl]hexahydropyrrolo[3,4-c]pyrrol-2(1H)-yl}quinoxaline]"
10,425 nM,"O=C(c1ccccc1-c1ccccc1)N1CC2CN(c3nccc(-c4ccco4)n3)CC2C1 (stereo not drawn) [Example 31, 2-(Biphenyl-2-ylcarbonyl)-5-(4-furan-2-ylpyrimidin-2-yl)octahydropyrrolo[3,4-c]pyrrole]"
11,47 nM,"Cc1ccnc(N2CC3CN(C(=O)c4ccccc4-c4cccs4)CC3C2)n1 (stereo not drawn) [Example 32, 2-(4-Methylpyrimidin-2-yl)-5-[(2-thiophen-2-ylphenyl)carbonyl]octahydro-pyrrolo[3,4-c]pyrrole]"
12,250 nM,"O=C(c1ccccc1-c1cccs1)N1CC2CN(c3ccc4ccccc4n3)CC2C1 (stereo not drawn) [Example 33, 2-{5-[(2-Thiophen-2-ylphenyl)carbonyl]hexahydropyrrolo[3,4-c]pyrrol-2(1H)-yl}quinoline]"
13,79 nM,"O=C(c1ccccc1-c1cccs1)N1CC2CN(c3nccc(-c4ccco4)n3)CC2C1 (stereo not drawn) [Example 34, 2-(4-Furan-2-ylpyrimidin-2-yl)-5-[(2-thiophen-2-ylphenyl)carbonyl]octahydro-pyrrolo[3,4-c]pyrrole]"
14,722 nM,"CCc1ccccc1C(=O)N1CC2CN(c3cnc4ccccc4n3)CC2C1 (stereo not drawn) [Example 35, 2-{5-[(2-Ethylphenyl)carbonyl]hexahydropyrrolo[3,4-c]pyrrol-2(1H)-yl}quinoxaline]"
15,181 nM,"O=C(c1ccccc1-c1cccs1)N1CC2CN(c3nccc(-c4cccs4)n3)CC2C1 (stereo not drawn) [Example 37, 2-[(2-Thiophen-2-ylphenyl)carbonyl]-5-(4-thiophen-2-ylpyrimidin-2-yl)octahydro-pyrrolo[3,4-c]pyrrole]"
16,515 nM,"O=C(c1ccccc1-c1ccccc1)N1CC2CN(c3nccc(-c4cccs4)n3)CC2C1 (stereo not drawn) [Example 38, 2-(Biphenyl-2-ylcarbonyl)-5-(4-thiophen-2-ylpyrimidin-2-yl)octahydropyrrolo[3,4-c]pyrrole]"
17,9000 nM,"Cc1cc(C)nc(N2CC3CN(C(=O)c4ccccc4-c4nccn4C)CC3C2)n1 (stereo not drawn) [Example 39, [5-(4,6-Dimethyl-pyrimidin-2-yl)-hexahydro-pyrrolo[3,4-c]pyrrol-2-yl]-[2-(1-methyl-1H-imidazol-2-yl)-phenyl]-methanone]"
18,356 nM,"O=C(c1ccccc1-c1cccc(Cl)c1)N1CC2CN(c3cnc4ccccc4n3)CC2C1 (stereo not drawn) [Example 41, 2-{5-[(3′-Chlorobiphenyl-2-yl)carbonyl]hexahydropyrrolo[3,4-c]pyrrol-2(1H)-yl}quinoxaline]"
